Drawing on PubChem BioAssay (NCI), this text covers TGI and GI50 for 9 compounds.

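Values below derive from 48-hour exposures of cells grown in 96-well plates, with endpoints linearly interpolated between the two concentrations bracketing the appropriate inhibition level. GI50 marks 50% less growth. At the TGI there is no net growth.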

Assay in all cases: NCI tumour cell line growth inhibition, 48 h
In experiment [1] the test system is SK-OV-3 ovarian.
Experiment [2] concerns KM12 colon.
For experiment [3], the system named is T-47D breast.
Experiment [4] deals with M14 melanoma.
For experiment [5], the system named is PC-3 prostate.
The subject of experiment [6] is ACHN renal.
For experiment [7], the system named is CAKI-1 renal.
The test system of experiment [8] is MOLT-4 leukemia.
The test system of experiment [9] is SR leukemia.
Experiment [10] has as its system SN12C renal.

For the compound `O=NNc1ccc(Sc2ccc(NN=O)cn2)nc1`, the TGI in experiment [1], in [2], in [3], in [4], in [5] and in [6] was more than 100 µM each time. Moreover, the TGI in experiment [7], in experiment [8], in [9] and in experiment [10] was more than 100 µM each time.
With `CC1(C)NCCC[C@]2(C)[C@H]3CC[C@@H]4[C@H]5[C@H](C(=O)/C=C/c6ccccn6)CC[C@]5(CO)CC[C@@]4(C)[C@]3(C)CC[C@@H]12`, the GI50 was 12.9 µM in [1]; 2.07 µM in experiment [2]; 2.78 µM in [3]; 1.81 µM in experiment [4]; 2.55 µM in [5]; 3.58 µM in [6]. Also, the GI50 in experiment [7] was 2.14 µM; in [8], 2.35 µM; in experiment [9] it was 1.81 µM; in experiment [10] it was 3.51 µM. Moreover, the TGI was determined as 30 µM in experiment [1]; 4.27 µM in [2]; 16 µM in experiment [3]; 3.56 µM in experiment [4]; 11.8 µM in [5]; 13.6 µM in experiment [6]. Besides, the TGI in experiment [7] is 6.85 µM; in experiment [8], 7.18 µM; in experiment [9] it was 6.27 µM; in experiment [10], 16.8 µM.
For `CCOC(=O)C#Cc1c(C(=O)OCC)nnn1Cc1ccc([N+](=O)[O-])cc1`, the GI50 in experiment [1] is 21.9 µM; in experiment [2], 10.2 µM; in experiment [3], 2.78 µM; in [4] it was 2.97 µM; in [5], 10.2 µM; in [6] it was 1.89 µM. Further, the GI50 is 1.76 µM in [7], 2.16 µM in experiment [8], 1.15 µM in [9] and 3.33 µM in experiment [10]. Also, the TGI in experiment [1] worked out at 51.1 µM; in experiment [2] it was 24.1 µM; in experiment [3], 7.65 µM; in experiment [4], 9.13 µM; in [5] it was 22.4 µM; in experiment [6], 3.45 µM. Further, the TGI in [7] stood at 3.3 µM; in experiment [8], 13.3 µM; in experiment [9], 4.4 µM; in [10], 12.1 µM.
For `NS(=O)(=O)c1ccc(N(/C=C/C(=O)C(F)(F)F)Cc2ccc(Cl)cc2)cc1`, the GI50 in experiment [1] was 36 µM; in experiment [2], 22.7 µM; in experiment [3] it was 20.8 µM; in experiment [4] it was 21 µM; in [5], 19.6 µM; in [6] it was 31.7 µM. The GI50 in experiment [7] is 24.4 µM; in experiment [8], 40.1 µM; in [9] it was 20.5 µM; in experiment [10] it was 21.1 µM. Also, the TGI was more than 100 µM in experiment [1]; 74.5 µM in experiment [2]; 97.5 µM in [3]; 43.4 µM in experiment [4]; 59 µM in experiment [5]; 78.1 µM in experiment [6]. The TGI in experiment [7] is 72.7 µM; in experiment [8], more than 100 µM; in [9] it was 43.5 µM; in experiment [10], 56.2 µM.
Take `C=C1C(=O)O[C@H]2[C@H]1CC/C(COC(=O)C(C)c1ccc(CC(C)C)cc1)=C\CC[C@@]1(C)O[C@@H]21` (stereo not given in full): the GI50 in [1] is 9.7 µM; in [2], 1.79 µM; in [3], 1.72 µM; in experiment [4], 0.688 µM; in experiment [5], 0.891 µM; in experiment [6], 1.29 µM. Besides, the GI50 was 1.67 µM in [7], 0.42 µM in experiment [8], 0.287 µM in experiment [9] and 1.34 µM in [10]. Further, the TGI in [1] came to 21.4 µM; in experiment [2] it was 3.69 µM; in [3], 4.43 µM; in experiment [4], 2.13 µM; in [5], 2.17 µM; in [6], 2.56 µM. Further, the TGI in experiment [7] turned out to be 3.04 µM; in [8] it was 2.02 µM; in experiment [9] it was 1.86 µM; in experiment [10], 2.72 µM.
Turning to `CC(=O)O[C@H]1[C@@H]2OC(=O)C(CSc3ccccc3)[C@@H]2C[C@H]2O[C@]2(C)CC/C=C(\C)CCC[C@@H]1C` (stereo not given in full), the GI50 in experiment [1] was 13.6 µM; in [2], 3.58 µM; in experiment [3], 2.43 µM; in [4], 2.13 µM; in experiment [5] it was 2.53 µM; in experiment [6] it was 1.8 µM. The GI50 in experiment [7] was 1.69 µM; in experiment [8] it was 2.52 µM; in [9] it was 1.69 µM; in experiment [10], 3.45 µM. Moreover, the TGI was 57 µM in experiment [1]; 14 µM in experiment [2]; 12.6 µM in experiment [3]; 5.37 µM in experiment [4]; 11.1 µM in experiment [5]; 3.82 µM in experiment [6]. In addition, the TGI was 6.34 µM in [7], more than 23.8 µM in experiment [8], more than 20.1 µM in experiment [9] and 14.8 µM in experiment [10].
For the compound `O=C1C2CCN(CC2)C1(CO)CO`, the TGI in experiment [1] is more than 100 µM; in [2], more than 93.2 µM; in [3], 45.4 µM; in experiment [4], 38.8 µM; in [5], more than 100 µM; in [6], 32.3 µM. Further, the TGI worked out at 40 µM in experiment [7], 23.6 µM in [8], 55.3 µM in experiment [9] and 33 µM in experiment [10].
With `CN(Cc1cc(Br)cc(Br)c1O)Cc1c(O)ccc2ccccc12`, the TGI in experiment [1] amounted to 52 µM; in experiment [2], 33.5 µM; in experiment [3], 43.8 µM; in experiment [4], 41.5 µM; in experiment [5] it was 33.5 µM; in experiment [6], 41.7 µM. Also, the TGI in [7] was found to be 31.5 µM; in experiment [8], 30 µM; in [9] it was 55.6 µM; in [10] it was 32 µM.
Regarding `CCCCCCCCCCCCCCCCCCOCC(CCP(=O)(CP(=O)(O)O)Oc1ccccc1)OCCCCCCCCCCCCCCCCCC` (stereo not given), the TGI in [1], in experiment [2], in experiment [3], in [4], in [5] and in experiment [6] was more than 100 µM in each case. The TGI in experiment [7], in [8], in experiment [9] and in experiment [10] was more than 100 µM throughout.
